Data published in PubChem BioAssay (NCI).
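Each compound was tested at five concentrations against cells in 96-well plates for 48 hours. GI50: concentration for 50% inhibition of growth. TGI: total growth inhibition.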

How the values were obtained:
Assay in all cases: inhibition of tumour cell growth, NCI panel, 48 h
[1] = test system: OVCAR-5 ovarian
[2] = test system: LOX IMVI melanoma
[3] = test system: NCI-H23 lung
[4] = test system: MALME-3M melanoma
[5] = test system: UO-31 renal
[6] = test system: TK-10 renal
[7] = test system: HOP-62 NSCLC
[8] = test system: K-562 leukemia
[9] = test system: UACC-62 melanoma
[10] = test system: SF-268 CNS

Compound | TGI [1] | TGI [2] | TGI [3] | TGI [4] | TGI [5] | TGI [6] | TGI [7] | TGI [8] | TGI [9] | TGI [10] | GI50 [1] | GI50 [2] | GI50 [3] | GI50 [4] | GI50 [5] | GI50 [6] | GI50 [7] | GI50 [8] | GI50 [9] | GI50 [10]
COc1ccccc1NC(=O)C1=C(C)NC(C)=C(C(=O)Nc2ccccc2OC)C1c1ccccc1F | > 100 µM | > 100 µM | > 100 µM | > 100 µM | > 100 µM | > 100 µM | > 100 µM | > 100 µM | > 100 µM | > 100 µM | – | – | – | – | – | – | – | – | – | –
Cc1cc(N(CCC#N)S(=O)(=O)c2ccccc2)ccc1/C=C1N=C(/C=C/c2ccccc2)OC\1=O | > 100 µM | > 100 µM | > 100 µM | > 100 µM | > 100 µM | > 100 µM | > 100 µM | > 100 µM | > 100 µM | > 100 µM | – | – | – | – | – | – | – | – | – | –
CCCN=Cc1cc(Cc2ccc(O)c(C=NCCC)c2)ccc1O | 36.6 µM | 13.4 µM | 26.2 µM | 50.5 µM | 36.3 µM | 57.4 µM | > 100 µM | 4.71 µM | 22.7 µM | 46.4 µM | – | – | – | – | – | – | – | – | – | –
Nc1ccn(Cc2ccc(C34CC5CC(CC(C5)C3)C4)c(O)c2)c(=O)n1 | > 100 µM | > 100 µM | > 100 µM | > 100 µM | > 100 µM | > 100 µM | 76.4 µM | > 100 µM | > 100 µM | > 100 µM | > 100 µM | > 100 µM | 54.5 µM | > 100 µM | > 100 µM | > 100 µM | 22.5 µM | 35.3 µM | > 100 µM | 67.1 µM
O=C1OC(=O)C(c2c[nH]c3ccccc23)=C1c1c[nH]c2ccccc12 | > 25 µM | > 25 µM | > 25 µM | > 25 µM | > 25 µM | > 25 µM | > 25 µM | > 25 µM | > 25 µM | > 25 µM | > 25 µM | > 25 µM | > 25 µM | > 25 µM | 8.73 µM | > 25 µM | > 25 µM | > 25 µM | > 25 µM | > 25 µM
CC1SC(c2c(Cl)cccc2Cl)N(NC(=O)c2[nH]c3ccc(F)cc3c2-c2ccccc2)C1=O (stereo not drawn) | 21.3 µM | 3.35 µM | 10.1 µM | 4.35 µM | 8.61 µM | 7.12 µM | 3.33 µM | > 100 µM | 32.5 µM | 4.89 µM | 3.06 µM | 1.71 µM | 2.73 µM | 1.43 µM | 2.13 µM | 2.56 µM | 1.79 µM | 21.9 µM | 4 µM | 1.97 µM
COc1cc(Cl)cc(-c2nn(C(=O)NCCN3CCOCC3)cc2-c2ccncc2)c1 | > 100 µM | 69.9 µM | > 100 µM | > 100 µM | 64.6 µM | > 100 µM | 63.6 µM | > 100 µM | 20.4 µM | > 100 µM | 37.8 µM | 5.14 µM | 11.5 µM | 9.77 µM | 3.85 µM | 8.46 µM | 6.03 µM | 4.12 µM | 3.72 µM | 6.69 µM
Cc1sc(C(=O)Nc2cc(C(=O)NCCCN(C)C)n(C)c2)cc1NC(=O)CCCN1C(=O)c2cccc3cccc(c23)C1=O | > 100 µM | > 100 µM | > 100 µM | > 100 µM | > 100 µM | > 100 µM | > 100 µM | > 100 µM | > 100 µM | > 100 µM | > 100 µM | > 100 µM | > 100 µM | 26 µM | > 100 µM | > 100 µM | > 100 µM | > 100 µM | > 100 µM | > 100 µM
CC(C)(C)C#CC1=C(Br)C(=O)OC1 | 0.608 µM | > 21.2 µM | 19 µM | 4.91 µM | 3.22 µM | 2.26 µM | 1.48 µM | – | > 45.5 µM | 33.3 µM | – | 1.7 µM | 2.16 µM | 2.08 µM | 0.9 µM | 0.36 µM | 0.454 µM | 0.841 µM | 13.2 µM | 12.7 µM
CC(C)(C)C[C@H]1NC(C(=O)NCC[C@H](O)CO)[C@H](c2cccc(Cl)c2)[C@@]12C(=O)Nc1cc(Cl)c(F)cc12 (stereo partly drawn) | 31.8 µM | 19.1 µM | 41.6 µM | 11.8 µM | 19.2 µM | 39.5 µM | 29.7 µM | 43.6 µM | 15.8 µM | 30.2 µM | 15.5 µM | 3.12 µM | 18.7 µM | 0.866 µM | 5.13 µM | 19.2 µM | 15.5 µM | 14.8 µM | 1.6 µM | 13.7 µM
CCN(Cc1ccc(F)c(F)c1)c1ccc(CO)c(Cl)c1 | 0.306 µM | 25.7 µM | 27.1 µM | 33.3 µM | 19.2 µM | 0.303 µM | 17.4 µM | 21.5 µM | 0.919 µM | 32.4 µM | 0.0592 µM | 11.8 µM | 6.7 µM | 17.2 µM | 2.7 µM | 0.102 µM | 1.71 µM | 1.37 µM | 0.12 µM | 15 µM
C[C@H](Nc1ncnc2nc[nH]c12)c1cc2cccc(Cl)c2c(=O)n1-c1ccccc1 | > 100 µM | > 100 µM | > 100 µM | > 79.5 µM | > 75.3 µM | 45.5 µM | > 100 µM | > 100 µM | > 100 µM | > 100 µM | 21.4 µM | 19.8 µM | 82.1 µM | 3.51 µM | 1.67 µM | 2.8 µM | 30.3 µM | 46.9 µM | 2.6 µM | 22.6 µM
Cc1ccncc1.[O]=[Ge].[O]=[Ge].[O]=[Ge].[O]=[Ge].[O]=[Ge].[O]=[Ge][OH].[O]=[Ge][OH] | > 100 µM | > 100 µM | > 100 µM | > 100 µM | > 100 µM | > 100 µM | > 100 µM | > 100 µM | > 100 µM | > 100 µM | > 100 µM | > 100 µM | > 100 µM | > 100 µM | > 100 µM | > 100 µM | > 100 µM | > 100 µM | > 100 µM | > 100 µM
